Where a SMILES comes first, the peptide text is derived from it. The star is where a group is joined. Succinyl(4-O-cholesteryl) = CC(C)CCC[C@@H](C)[C@H]1CC[C@H]2[C@@H]3CC=C4C[C@@H](OC(=O)CCC(=O)*)CC[C@]4(C)[C@H]3CC[C@]12C
Legend:
hPIV3 C243 virus strain = type: cell-based, hPIV; conditions: LLC-MK2 cells, hPIV3 C243, plaque reduction; read-out: EC50 against hPIV3 virus
Procedure, shortened: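 LLC-MK2 cells (40,000/well) infected with about 200 PFU of virus preincubated 1 h with the sample, then overlaid with 0.8% CMC medium containing the sample (0.5% DMSO) for 1 day at 37 °C. Plaques immunostained with TrueBlue and counted; 8 concentrations in duplicate, EC50 from a four-parameter fit.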

[1] = Cytotoxicity test in HEp-2 cells (CCK8 cell viability); type: cell-based; conditions: human; HEp-2 cells, CCK8, 1 day; read-out: CC50
Procedure, shortened: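 Compound dilutions (final DMSO 0.5%) were applied for 1 day to HEp-2 cells plated at 30,000 per well the day before. CCK8 signal gave survival relative to cell and medium controls, and a four-parameter log(inhibitor)-response fit yielded CC50.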

Question: What does the source list for CC[C@H](C)[C@H](NC(=O)[C@H](CO)NC(=O)[C@H](C)NC(=O)[C@H](CC(=O)O)NC(=O)[C@H](Cc1ccccc1)NC(=O)[C@H](CCC(=O)O)NC(=O)[C@H](CC(=O)O)NC(C)=O)C(=O)N[C@@H](CO)C(=O)N[C@@H](CCC(N)=O)C(=O)N[C@H](C(=O)N[C@@H](CC(N)=O)C(=O)N[C@@H](CCC(=O)O)C(=O)N[C@@H](CCCCN)C(=O)N[C@H](C(=O)N[C@@H](CC(N)=O)C(=O)N[C@@H](CCC(N)=O)C(=O)N[C@@H](CO)C(=O)N[C@@H](CC(C)C)C(=O)N[C@@H](CCC(=O)O)C(=O)N[C@@H](CCC(=O)O)C(=O)N[C@H](C(=O)N[C@@H](CCCNC(=N)N)C(=O)N[C@@H](CCCCN)C(=O)N[C@@H](CO)C(=O)N[C@@H](CC(=O)O)C(=O)N[C@@H](CCC(=O)O)C(=O)N[C@@H](CC(C)C)C(=O)N[C@@H](CC(C)C)C(=O)N[C@@H](Cc1c[nH]cn1)C(=O)N[C@@H](CC(N)=O)C(=O)N[C@@H](CCC(=O)O)C(=O)N[C@@H](C)C(=O)N[C@@H](C)C(=O)N[C@@H](C)C(=O)N[C@@H](CCCCN)C(=O)N[C@@H](CCCCNC(=O)CCC(=O)O[C@H]1CC[C@@]2(C)C(=CC[C@H]3[C@@H]4CC[C@H]([C@H](C)CCCC(C)C)[C@@]4(C)CC[C@@H]32)C1)C(N)=O)[C@@H](C)CC)[C@@H](C)CC)C(C)C [Compound 28] (Ac-DEFDASISQVNEKINQSLEEIRKSDELLHNEAAAKK(Succinyl(4-O-cholesteryl))-NH2)?
Answer: EC50 (hPIV3 C243 virus strain): 0.0544 µM; CC50 at 1 day [1]: 8.8 µM

Source: US20260250325A1, “Antiviral Polypeptide Membrane Fusion Inhibitor, and Preparation Method and Application Thereof” (priority 2025, published 2026)
